From patent US12091411B2, “IRAK degraders and uses thereof” (Kymera Therapeutics, Inc., priority 2022, dated 2024)
Where two headings read alike, the source gives them in different places.

Molecular target: T1, IRAK4 (Homo sapiens, UniProt Q9NWZ3)
T1 construct: Degradation of IRAK4 in OCI-LY10 was quantitatively measured using Meso Scale Discovery technology; endogenous in cells; host or cells: OCI-LY10
T1 sequence (Q9NWZ3 1-460): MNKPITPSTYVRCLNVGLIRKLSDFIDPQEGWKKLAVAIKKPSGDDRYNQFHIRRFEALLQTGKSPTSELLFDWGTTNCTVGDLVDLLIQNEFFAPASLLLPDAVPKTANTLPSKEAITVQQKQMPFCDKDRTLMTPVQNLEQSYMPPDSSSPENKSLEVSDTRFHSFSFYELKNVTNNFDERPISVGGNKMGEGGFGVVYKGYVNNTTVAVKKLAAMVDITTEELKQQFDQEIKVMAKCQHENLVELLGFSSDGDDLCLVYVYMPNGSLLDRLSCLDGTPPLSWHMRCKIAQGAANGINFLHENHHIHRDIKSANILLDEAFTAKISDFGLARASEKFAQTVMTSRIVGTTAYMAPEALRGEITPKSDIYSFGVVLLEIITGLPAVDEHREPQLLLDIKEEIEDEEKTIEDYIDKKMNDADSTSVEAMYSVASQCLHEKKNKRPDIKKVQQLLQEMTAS
Experiment: IRAK4 MSD Degradation in OCI-LY10
Assay type: cell-based
Details: OCI-LY10 cells, MSD
How it was run: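 OCI-LY10 cells exposed to 8-point 1:3 compound series (top 1 to 10 μM) for 4 to 24 h at 37 °C, 5% CO2. Lysate IRAK4 quantified by MSD sandwich immunoassay. DC50 from three-parameter logistic fit, binned A (<0.01 μM) to D (>0.2 μM or not tested).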

[1] = 4 hrs incubation, read-out: IRAK4 degradation in OCI-LY10 at 4 hrs: DC50
[2] = 24 hrs incubation, read-out: IRAK4 degradation in OCI-LY10 at 24 hrs: DC50

| DC50 [1] | DC50 [2] | SMILES |
| --- | --- | --- |
| > 0.2 µM | < 0.01 µM | Cn1c(=O)n(C2CCC(=O)NC2=O)c2cccc(C3COC4(C3)CN(C[C@H]3CC[C@H](n5cc6cc(NC(=O)c7cccc(C(F)(F)F)n7)ccc6n5)CC3)C4)c21 (stereo partly shown) [I-689] |
| > 0.2 µM | < 0.01 µM | Cn1c(=O)n(C2CCC(=O)NC2=O)c2cccc([C@@H]3CCN(C[C@]4(O)CC[C@@H](n5cc6cc(NC(=O)c7cccc(C(F)(F)F)n7)ccc6n5)CC4)C[C@H]3F)c21 (stereo partly shown) [I-690] |
| > 0.2 µM | > 0.2 µM | Cn1c(=O)n(C2CCC(=O)NC2=O)c2cccc(C#CCOC3CCN(C[C@H]4CC[C@@H](c5ccc(C(F)F)c(NC(=O)c6cnn7ccc(N8C[C@H]9C[C@@H]8CO9)nc67)c5)CC4)CC3)c21 (stereo partly shown) [I-691] |
| > 0.2 µM | < 0.01 µM | Cc1cccc(C(=O)Nc2cc3cn([C@H]4CC[C@H](CN5CCN(c6cccc7c6n(C)c(=O)n7C6CCC(=O)NC6=O)CC5)CC4)nc3cn2)n1 (stereo partly shown) [I-692] |
| > 0.2 µM | < 0.01 µM | Cn1c(=O)n(C2CCC(=O)NC2=O)c2cccc(N3CCN(C[C@H]4CC[C@H](n5cc6cc(NC(=O)c7cccc(C(F)F)n7)ncc6n5)CC4)CC3)c21 (stereo partly shown) [I-693] |
| > 0.2 µM | < 0.01 µM | Cn1c(=O)n(C2CCC(=O)NC2=O)c2ccc(F)c(N3CCN(C[C@H]4CC[C@H](n5cc6cc(NC(=O)c7cccc(C(F)(F)F)n7)ncc6n5)CC4)CC3)c21 (stereo partly shown) [I-694] |
| > 0.2 µM | < 0.01 µM | Cc1cccc(C(=O)Nc2cc3cn([C@H]4CC[C@H](CN5CCN(c6c(F)ccc7c6n(C)c(=O)n7C6CCC(=O)NC6=O)CC5)CC4)nc3cn2)n1 (stereo partly shown) [I-695] |
| > 0.2 µM | < 0.01 µM | Cn1c(=O)n(C2CCC(=O)NC2=O)c2cccc(OC3CN(C[C@H]4CC[C@H](n5cc6cc(NC(=O)c7cccc(C(F)(F)F)n7)c(C(C)(C)O)cc6n5)CC4)C3)c21 (stereo partly shown) [I-696] |
| > 0.2 µM | < 0.01 µM | CN(c1cccc2c1n(C)c(=O)n2C1CCC(=O)NC1=O)C1CN(C[C@H]2CC[C@H](n3cc(NC(=O)c4cnn5ccc(N6C[C@H]7C[C@@H]6CO7)nc45)c(C(F)F)n3)CC2)C1 (stereo partly shown) [I-697] |
| > 0.2 µM | > 0.2 µM | CN(c1cccc2c1n(C)c(=O)n2C1CCC(=O)NC1=O)C1CN(C[C@H]2CC[C@H](n3cc4cc(NC(=O)c5cccc(C(F)(F)F)n5)ncc4n3)CC2)C1 (stereo partly shown) [I-698] |
| > 0.2 µM | > 0.2 µM | CN(c1cccc2c1n(C)c(=O)n2C1CCC(=O)NC1=O)C1CN(C[C@H]2CC[C@H](n3cc4cc(NC(=O)c5cccc(C(F)(F)F)n5)ccc4n3)CC2)C1 (stereo partly shown) [I-699] |
| > 0.2 µM |  | CN(CC1CCN(c2cccc3c2n(C)c(=O)n3C2CCC(=O)NC2=O)CC1)c1ccc(-n2cc(NC(=O)c3cnn4cccnc34)c(C(F)F)n2)cc1 (stereo not shown) [I-700] |
| > 0.2 µM | < 0.01 µM | Cn1c(=O)n(C2CCC(=O)NC2=O)c2cccc(N3CCN(C4CCN(C[C@H]5CC[C@H](n6cc(NC(=O)c7cnn8ccc(N9C[C@H]%10C[C@@H]9CO%10)nc78)c(C(F)F)n6)CC5)CC4(F)F)CC3)c21 (stereo partly shown) [I-701] |
| > 0.2 µM | 0.01 to 0.1 µM | Cn1c(=O)n(C2CCC(=O)NC2=O)c2cccc(CN3CC4(CCN(Cc5ccc(-n6cc(NC(=O)c7cnn8ccc(N9C[C@H]%10C[C@@H]9CO%10)nc78)c(C(F)F)n6)cc5)CC4)C3)c21 (stereo partly shown) [I-702] |
| > 0.2 µM | < 0.01 µM | Cn1c(=O)n(C2CCC(=O)NC2=O)c2cccc(C#CCN3CCN(C[C@H]4CC[C@H](n5cc(NC(=O)c6cnn7ccc(N8CCOC(F)(F)C8)nc67)c(C(F)F)n5)CC4)CC3)c21 (stereo partly shown) [I-703] |
| > 0.2 µM | 0.01 to 0.1 µM | COc1cc2nn([C@H]3CC[C@H](CN4CC=C(c5ccc6c(c5)n(C)c(=O)n6C5CCC(=O)NC5=O)C(F)(F)C4)CC3)cc2cc1NC(=O)c1cccc(C(F)(F)F)n1 (stereo partly shown) [I-704] |
| > 0.2 µM | < 0.01 µM | Cn1c(=O)n(C2CCC(=O)NC2=O)c2cccc(C3CCN(C[C@H]4CC[C@H](n5cc6cc(NC(=O)c7cccc(C(F)(F)F)n7)c(C#N)cc6n5)CC4)CC3(F)F)c21 (stereo partly shown) [I-705] |
| > 0.2 µM | 0.01 to 0.1 µM | Cn1c(=O)n(C2CCC(=O)NC2=O)c2cccc(C3=CCN(C[C@H]4CC[C@H](n5cc6cc(NC(=O)c7cccc(C(F)(F)F)n7)ccc6n5)CC4)CC3F)c21 (stereo partly shown) [I-706] |
| > 0.2 µM | < 0.01 µM | Cn1c(=O)n(C2CCC(=O)NC2=O)c2cccc([C@H]3CCN(C[C@H]4CC[C@H](n5cc6cc(NC(=O)c7cccc(C(F)(F)F)n7)ccc6n5)CC4)C[C@@H]3O)c21 (stereo partly shown) [I-707] |

| DC50 [1] | DC50 [2] | SMILES |
| --- | --- | --- |
| > 0.2 µM | 0.01 to 0.1 µM | Cn1c(=O)n(C2CCC(=O)NC2=O)c2cccc(C3CCN(C[C@H]4CC[C@H](n5cc6cc(NC(=O)c7cccc(C(F)(F)F)n7)ccc6n5)CC4)CC3(F)F)c21 (stereo partly shown) [I-708] |
| > 0.2 µM | 0.01 to 0.1 µM | O=C1CCN(c2cncc3c(C4CCN(C[C@H]5CC[C@H](n6cc7cc(NC(=O)c8cccc(C(F)(F)F)n8)ccc7n6)CC5)CC4(F)F)cccc23)C(=O)N1 (stereo partly shown) [I-709] |
| > 0.2 µM | 0.01 to 0.1 µM | COc1cc2nn([C@H]3CC[C@H](CN(C)C4CCN(c5cccc6c5n(C)c(=O)n6C5CCC(=O)NC5=O)CC4(F)F)CC3)cc2cc1NC(=O)c1cccc(C(F)(F)F)n1 (stereo partly shown) [I-710] |
| > 0.2 µM | < 0.01 µM | Cn1c(=O)n(C2CCC(=O)NC2=O)c2cccc(C3CCN(C[C@]4(O)CC[C@@H](n5cc6cc(NC(=O)c7cccc(C(F)(F)F)n7)ccc6n5)CC4)CC3)c21 (stereo partly shown) [I-711] |
| > 0.2 µM | < 0.01 µM | Cn1c(=O)n(C2CCC(=O)NC2=O)c2ccc(N3CCN(CC4COC5(C4)CN(C[C@H]4CC[C@H](n6cc(NC(=O)c7cnn8ccc(N9C[C@H]%10C[C@@H]9CO%10)nc78)c(C(F)F)n6)CC4)C5)CC3)cc21 (stereo partly shown) [I-712] |
| > 0.2 µM | < 0.01 µM | Cn1c(=O)n(C2CCC(=O)NC2=O)c2cccc(C3=CCN(C[C@H]4CC[C@H](n5cc6cc(NC(=O)c7cccc(C(F)(F)F)n7)c(C#N)cc6n5)CC4)CC3F)c21 (stereo partly shown) [I-713] |
| > 0.2 µM | < 0.01 µM | Cn1c(=O)n(C2CCC(=O)NC2=O)c2cccc(C#CCO[C@H]3CCN(C[C@H]4CC[C@H](n5cc(NC(=O)c6cnn7ccc(N8CCS(=O)(=O)CC8)nc67)c(C(F)F)n5)CC4)C[C@@H]3F)c21 (stereo partly shown) [I-714] |
| > 0.2 µM | < 0.01 µM | Cn1c(=O)n(C2CCC(=O)NC2=O)c2cccc(C#CCO[C@@H]3CCN(C[C@H]4CC[C@H](n5cc(NC(=O)c6cnn7ccc(N8CCS(=O)(=O)CC8)nc67)c(C(F)F)n5)CC4)C[C@H]3F)c21 (stereo partly shown) [I-715] |
| > 0.2 µM | < 0.01 µM | Cn1c(=O)n(C2CCC(=O)NC2=O)c2cccc(C3CCN(C[C@H]4CC[C@H](n5cc6cc(NC(=O)c7cccc(C#N)n7)ccc6n5)CC4)CC3(F)F)c21 (stereo partly shown) [I-716] |
| > 0.2 µM | < 0.01 µM | Cn1c(=O)n(C2CCC(=O)NC2=O)c2cccc([C@H]3CCN(C[C@H]4CC[C@H](n5cc6cc(NC(=O)c7cccc(C(F)(F)F)n7)ncc6n5)CC4)C[C@@H]3F)c21 (stereo partly shown) [I-717] |
| > 0.2 µM | < 0.01 µM | Cn1c(=O)n(C2CCC(=O)NC2=O)c2cccc([C@H]3C[C@H](CO[C@H]4CCN(C[C@H]5CC[C@H](n6cc(NC(=O)c7cnn8ccc(N9C[C@H]%10C[C@@H]9CO%10)nc78)c(C(F)F)n6)CC5)C[C@@H]4F)C3)c21 (stereo partly shown) [I-718] |
| > 0.2 µM | < 0.01 µM | Cn1c(=O)n(C2CCC(=O)NC2=O)c2cccc(C3CCN(C[C@H]4CC[C@H](n5cc6cc(NC(=O)c7cnn8ccc(N9C[C@H]%10C[C@@H]9CO%10)nc78)ccc6n5)CC4)CC3(F)F)c21 (stereo partly shown) [I-719] |
| > 0.2 µM | < 0.01 µM | Cn1c(=O)n(C2CCC(=O)NC2=O)c2cccc(N3CCN([C@@H]4CCN(C[C@H]5CC[C@H](n6cc(NC(=O)c7cnn8ccc(N9C[C@H]%10C[C@@H]9CO%10)nc78)c(C(F)F)n6)CC5)CC4(F)F)CC3)c21 (stereo partly shown) [I-720] |
| > 0.2 µM | < 0.01 µM | Cn1c(=O)n(C2CCC(=O)NC2=O)c2cccc(N3CCN([C@H]4CCN(C[C@H]5CC[C@H](n6cc(NC(=O)c7cnn8ccc(N9C[C@H]%10C[C@@H]9CO%10)nc78)c(C(F)F)n6)CC5)CC4(F)F)CC3)c21 (stereo partly shown) [I-721] |
| > 0.2 µM | < 0.01 µM | Cn1c(=O)n(C2CCC(=O)NC2=O)c2cccc([C@H]3C[C@H](CO[C@@H]4CCN(C[C@H]5CC[C@H](n6cc(NC(=O)c7cnn8ccc(N9C[C@H]%10C[C@@H]9CO%10)nc78)c(C(F)F)n6)CC5)C[C@@H]4F)C3)c21 (stereo partly shown) [I-722] |
| > 0.2 µM | < 0.01 µM | Cn1c(=O)n(C2CCC(=O)NC2=O)c2cccc(N3CCN(C4CCN(C[C@H]5CC[C@H](n6cc(NC(=O)c7cnn8ccc(N9CCC%10(COC%10)C9)nc78)c(C(F)F)n6)CC5)CC4(F)F)CC3)c21 (stereo partly shown) [I-723] |
| > 0.2 µM | < 0.01 µM | Cn1c(=O)n(C2CCC(=O)NC2=O)c2ccc(N3CC(CN4CCN(C[C@H]5CC[C@H](n6cc(NC(=O)c7cnn8ccc(N9C[C@H]%10C[C@@H]9CO%10)nc78)c(C(F)F)n6)CC5)CC4)C3)c(F)c21 (stereo partly shown) [I-724] |
| > 0.2 µM | > 0.2 µM | Cn1c(=O)n(C2CCC(=O)NC2=O)c2ccc(N3CC(CO[C@@H]4CCN(CC5CCC(n6cc(NC(=O)c7cnn8ccc(N9C[C@H]%10C[C@@H]9CO%10)nc78)c(C(F)F)n6)CC5)C[C@@H]4F)C3)c(F)c21 (stereo partly shown) [I-725] |
